Laboratory results as given in patent US12624044B2, “SMARCA degraders and uses thereof” (Kymera Therapeutics, Inc., priority 2019, dated 2026).

Tests used:
Type in all cases: cell-based
[1] = target: T1, SMARCA2 (Homo sapiens, UniProt P51531); experiment: SMARCA2 Western blot MV4-11 degradation; conditions: for SMARCA2 WB MV411 degradation 24 h: Average Dmax % / DC50: MV4-11 cells; for DC50 / Dmax: 24 h; for DC50: read-out: SMARCA2 WB MV411 degradation 24 h: Average external-Abs DC50; for Dmax: MV4-11, MV4-11 cells, read-out: SMARCA2 WB MV411 degradation 24 h: Average Dmax %
Method in brief: (§1)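 MV4-11 cells treated with compound for 24 h, lysed in RIPA with protease/phosphatase inhibitors, and SMARCA2 and SMARCA4 (BRG1) levels assessed by Western blot with β-actin loading control and LI-COR fluorescent read-out. Maximal degradation (Dmax %) after 24 h binned into letter codes.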

[2] = target: T2, SMARCA4 (Homo sapiens, UniProt P51532); experiment: SMARCA4 Western blot MV4-11 degradation; conditions: for SMARCA4 WB MV411 degradation 24 h: Average Dmax % / DC50: MV4-11 cells; for DC50 / Dmax: 24 h; for DC50: read-out: SMARCA4 WB MV411 degradation 24 h: Average external-Abs DC50; for Dmax: MV4-11, MV4-11 cells, read-out: SMARCA4 WB MV411 degradation 24 h: Average Dmax %
T2 construct: SMARCA2 and SMARCA4 protein degradation in MV4-11 cells; endogenous in cells; host or cells: MV4-11
Method in brief: as §1

[3] = target: T1, SMARCA2; experiment: MSD SMARCA2 degradation in NCI-H1299 cell line (24 h); design: HC: NCI-H1299 cells treated with DMSO; host or cells: NCI-H1299; conditions: NCI-H1299 cells
Method in brief: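 NCI-H1299 cells treated 24 h with a 3-fold, 9-point compound dilution series, then lysed in RIPA with protease inhibitor. SMARCA2 in lysate-coated MSD plates detected with rabbit anti-SMARCA2 (0.3 ug/ml) and SULFO-TAG secondary. Relative SMARCA2 level normalized between DMSO-treated H1299 cells and SMARCA2-negative A2780 cells; Dmax % binned A–D.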

[4] = target: T1, SMARCA2; experiment: MSD SMARCA2 degradation in A549 cell line; conditions: for SMARCA2 MSD A549 degradation 24 h: Average Dmax % / DC50: A549 cells; for DC50 / Dmax: 24 h; for DC50: read-out: SMARCA2 MSD A549 degradation 24 h: Average external-Abs DC50; for Dmax: A549, A549 cells
Method in brief: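 A549 cells treated 24 h with compound at final 0.152-1000 nM (3-fold series, DMSO control). Lysates analyzed by MSD immunoassay using anti-SMARCA2/BRM detection and SULFO-TAG secondary antibodies; maximal degradation (Dmax %) reported as letter bins.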

T2 sequence (P51532 whole entry): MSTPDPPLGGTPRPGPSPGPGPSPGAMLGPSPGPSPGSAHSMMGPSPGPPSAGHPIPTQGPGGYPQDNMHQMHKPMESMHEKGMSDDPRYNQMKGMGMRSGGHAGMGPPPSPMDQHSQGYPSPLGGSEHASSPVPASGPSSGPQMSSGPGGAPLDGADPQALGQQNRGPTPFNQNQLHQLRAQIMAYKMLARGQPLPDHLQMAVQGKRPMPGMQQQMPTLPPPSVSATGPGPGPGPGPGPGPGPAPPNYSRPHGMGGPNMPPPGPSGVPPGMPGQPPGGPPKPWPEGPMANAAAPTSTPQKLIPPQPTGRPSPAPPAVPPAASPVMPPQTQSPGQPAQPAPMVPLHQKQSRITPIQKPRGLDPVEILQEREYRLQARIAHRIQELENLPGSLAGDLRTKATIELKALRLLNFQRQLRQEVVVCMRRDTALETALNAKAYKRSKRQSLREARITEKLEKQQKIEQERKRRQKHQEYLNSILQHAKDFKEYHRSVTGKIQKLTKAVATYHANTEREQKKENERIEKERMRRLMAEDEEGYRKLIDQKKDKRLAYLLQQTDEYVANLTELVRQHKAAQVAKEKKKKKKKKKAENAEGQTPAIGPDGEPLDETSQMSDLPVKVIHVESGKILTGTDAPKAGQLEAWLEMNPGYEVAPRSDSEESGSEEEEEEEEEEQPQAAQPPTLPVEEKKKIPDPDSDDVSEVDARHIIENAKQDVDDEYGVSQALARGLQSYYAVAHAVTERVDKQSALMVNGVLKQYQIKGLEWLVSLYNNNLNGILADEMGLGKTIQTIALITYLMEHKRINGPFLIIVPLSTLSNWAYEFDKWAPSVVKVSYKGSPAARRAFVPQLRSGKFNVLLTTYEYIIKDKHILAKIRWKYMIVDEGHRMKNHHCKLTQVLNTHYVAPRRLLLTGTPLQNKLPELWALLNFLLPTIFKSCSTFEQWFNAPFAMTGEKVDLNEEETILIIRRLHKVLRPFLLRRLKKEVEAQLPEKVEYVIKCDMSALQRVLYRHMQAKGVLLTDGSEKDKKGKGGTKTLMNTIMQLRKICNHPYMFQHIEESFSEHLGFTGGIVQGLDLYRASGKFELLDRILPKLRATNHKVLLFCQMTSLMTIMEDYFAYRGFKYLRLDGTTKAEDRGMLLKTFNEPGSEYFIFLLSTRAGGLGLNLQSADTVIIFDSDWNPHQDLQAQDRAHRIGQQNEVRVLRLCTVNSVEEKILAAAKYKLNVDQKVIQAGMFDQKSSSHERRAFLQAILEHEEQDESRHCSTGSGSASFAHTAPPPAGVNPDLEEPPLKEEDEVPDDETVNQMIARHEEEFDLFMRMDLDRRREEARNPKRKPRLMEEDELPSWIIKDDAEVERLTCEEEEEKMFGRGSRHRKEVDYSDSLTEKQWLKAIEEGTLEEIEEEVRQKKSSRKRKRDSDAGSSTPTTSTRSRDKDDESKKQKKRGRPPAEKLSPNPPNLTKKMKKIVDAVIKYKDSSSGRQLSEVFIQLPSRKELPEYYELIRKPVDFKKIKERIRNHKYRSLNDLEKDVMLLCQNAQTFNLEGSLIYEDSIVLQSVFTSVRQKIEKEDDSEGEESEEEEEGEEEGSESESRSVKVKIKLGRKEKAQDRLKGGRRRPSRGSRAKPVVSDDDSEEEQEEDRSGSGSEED
T1 sequence (P51531 whole entry): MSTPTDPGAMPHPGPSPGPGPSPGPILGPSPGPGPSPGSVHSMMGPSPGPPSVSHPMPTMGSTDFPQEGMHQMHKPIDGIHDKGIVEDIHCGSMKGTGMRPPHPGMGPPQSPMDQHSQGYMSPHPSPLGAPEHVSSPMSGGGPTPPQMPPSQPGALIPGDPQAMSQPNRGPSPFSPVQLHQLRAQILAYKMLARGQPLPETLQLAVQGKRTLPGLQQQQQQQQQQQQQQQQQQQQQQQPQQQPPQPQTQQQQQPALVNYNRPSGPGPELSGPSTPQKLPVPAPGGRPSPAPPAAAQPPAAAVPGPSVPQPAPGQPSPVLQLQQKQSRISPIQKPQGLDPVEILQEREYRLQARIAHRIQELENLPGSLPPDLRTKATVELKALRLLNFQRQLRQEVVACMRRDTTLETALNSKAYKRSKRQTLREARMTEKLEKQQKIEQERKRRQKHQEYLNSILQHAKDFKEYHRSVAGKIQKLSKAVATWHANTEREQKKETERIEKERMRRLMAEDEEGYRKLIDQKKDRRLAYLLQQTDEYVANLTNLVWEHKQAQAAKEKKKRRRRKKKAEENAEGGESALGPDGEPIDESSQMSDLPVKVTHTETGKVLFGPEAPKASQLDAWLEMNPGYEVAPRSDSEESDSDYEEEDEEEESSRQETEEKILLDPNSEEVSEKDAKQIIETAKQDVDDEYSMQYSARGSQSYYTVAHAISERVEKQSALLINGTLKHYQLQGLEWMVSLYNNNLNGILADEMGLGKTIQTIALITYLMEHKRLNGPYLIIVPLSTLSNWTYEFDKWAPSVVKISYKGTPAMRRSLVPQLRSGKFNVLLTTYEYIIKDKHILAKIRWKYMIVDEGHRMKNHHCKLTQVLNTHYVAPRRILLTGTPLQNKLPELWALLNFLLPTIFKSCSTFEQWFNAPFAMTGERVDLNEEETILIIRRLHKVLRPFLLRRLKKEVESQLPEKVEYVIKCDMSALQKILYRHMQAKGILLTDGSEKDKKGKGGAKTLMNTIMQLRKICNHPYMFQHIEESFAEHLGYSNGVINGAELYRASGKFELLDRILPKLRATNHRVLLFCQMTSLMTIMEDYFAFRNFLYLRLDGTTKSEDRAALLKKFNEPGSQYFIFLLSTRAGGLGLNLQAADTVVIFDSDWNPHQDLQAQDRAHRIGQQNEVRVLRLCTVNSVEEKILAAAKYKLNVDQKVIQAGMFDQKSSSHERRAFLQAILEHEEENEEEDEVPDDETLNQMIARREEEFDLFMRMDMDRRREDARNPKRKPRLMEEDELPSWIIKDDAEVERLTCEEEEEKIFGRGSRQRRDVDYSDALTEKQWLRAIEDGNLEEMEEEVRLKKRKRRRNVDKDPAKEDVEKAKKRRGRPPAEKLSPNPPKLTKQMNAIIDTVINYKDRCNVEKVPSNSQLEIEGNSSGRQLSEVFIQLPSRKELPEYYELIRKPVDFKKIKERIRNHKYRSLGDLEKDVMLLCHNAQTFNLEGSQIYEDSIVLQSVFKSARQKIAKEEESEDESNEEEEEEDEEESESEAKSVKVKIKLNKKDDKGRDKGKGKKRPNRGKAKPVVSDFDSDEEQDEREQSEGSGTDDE

SMILES: Cc1ncsc1-c1ccc(CNC(=O)[C@@H]2C[C@@H](O)CN2C(=O)[C@@H](NC(=O)[C@H]2CC3(C2)C[C@H](N2CCC(n4cc(-c5cc(-c6ccccc6O)nnc5N)cn4)CC2)C3)C(C)(C)C)cc1 (some centres unmarked) [I-390]
- SMARCA2 WB MV411 degradation 24 h: Average Dmax % [1]: B (B (>70-90% degradation))
- DC50 [1]: < 100 nM
- SMARCA4 WB MV411 degradation 24 h: Average Dmax % [2]: D (D (<50% degradation))
- DC50 [2]: < 100 nM
- SMARCA2 MSD H1299 degradation 24 h: Dmax % [3]: C (C (50-70 degradation))
- DC50 ([3]; read-out: SMARCA2 MSD H1299 degradation 24 h: External Abs-DC50): 501 to 1000 nM
- SMARCA2 MSD A549 degradation 24 h: Average Dmax % [4]: B (B (>70-90% degradation))
- DC50 [4]: 100 to 500 nM

SMILES: Cc1ncsc1-c1ccc(CNC(=O)[C@@H]2C[C@@H](O)CN2C(=O)[C@@H](NC(=O)[C@H]2CC[C@H](c3cnc(N4C5CCC4CN(c4cc(-c6ccccc6O)nnc4N)C5)nc3)CC2)C(C)(C)C)c(C(=O)N(C)C)c1 [I-431]
- Dmax [1]: > 90%
- DC50 [1]: < 100 nM
- Dmax [2]: > 90%
- DC50 [2]: < 100 nM
- Dmax [4]: > 90%
- DC50 [4]: < 100 nM

SMILES: Cc1ncsc1-c1ccc(CNC(=O)[C@@H]2C[C@@H](O)CN2C(=O)[C@@H](NC(=O)[C@H]2CC3(C2)C[C@H](c2ccc(CN4CCC(Cn5cc(-c6cc(-c7ccccc7O)nnc6N)cn5)CC4)cc2)C3)C(C)(C)C)cc1 (some centres unmarked) [I-433]
- Dmax [1]: > 90%
- DC50 [1]: < 100 nM
- SMARCA4 WB MV411 degradation 24 h: Average Dmax % [2]: C (C (50-70% degradation))
- DC50 [2]: < 100 nM
- Dmax [4]: > 90%
- DC50 [4]: < 100 nM

SMILES: Cc1ncsc1-c1ccc(CNC(=O)[C@@H]2C[C@@H](O)CN2C(=O)[C@@H](NC(=O)[C@H]2C[C@@]3(C2)C[C@H](c2ccc(CN4CCC(Cn5cc(-c6cc(-c7ccccc7O)nnc6N)cn5)CC4)cc2)C3)C(C)(C)C)cc1 (some centres unmarked) [I-434]
- SMARCA2 WB MV411 degradation 24 h: Average Dmax % [1]: A (A (>90% degradation))
- DC50 [1]: < 100 nM
- SMARCA4 WB MV411 degradation 24 h: Average Dmax % [2]: A (A (>90% degradation))
- DC50 [2]: < 100 nM
- SMARCA2 MSD A549 degradation 24 h: Average Dmax % [4]: A (A (>90% degradation))
- DC50 [4]: < 100 nM

SMILES: Cc1ncsc1-c1ccc(CNC(=O)[C@@H]2C[C@@H](O)CN2C(=O)[C@@H](NC(=O)[C@H]2CC[C@H](Cc3ccc(-c4cnc(N5C6CCC5CN(c5cc(-c7ccccc7O)nnc5N)C6)nc4)cc3)CC2)C(C)(C)C)cc1 [I-437]
- Dmax [1]: > 90%
- DC50 [1]: < 100 nM
- Dmax [2]: > 90%
- DC50 [2]: 100 to 500 nM
- Dmax [4]: > 90%
- DC50 [4]: < 100 nM

SMILES: Cc1ncsc1-c1ccc([C@H](C)NC(=O)[C@@H]2C[C@@H](O)CN2C(=O)[C@@H](NC(=O)[C@H]2CC[C@H](c3cnc(N4C5CCC4CN(c4cc(-c6ccccc6O)nnc4N)C5)nc3)CC2)C(C)(C)C)cc1 [I-438]
- Dmax [1]: > 90%
- DC50 [1]: < 100 nM
- Dmax [2]: > 90%
- DC50 [2]: < 100 nM
- Dmax [4]: > 90%
- DC50 [4]: < 100 nM

SMILES: Cc1ncsc1-c1ccc(C2(NC(=O)[C@@H]3C[C@@H](O)CN3C(=O)[C@@H](NC(=O)[C@H]3CC[C@H](c4cnc(N5C6CCC5CN(c5cc(-c7ccccc7O)nnc5N)C6)nc4)CC3)C(C)(C)C)CC2)cc1 [I-439]
- Dmax [1]: > 90%
- DC50 [1]: < 100 nM
- Dmax [2]: > 90%
- DC50 [2]: < 100 nM
- Dmax [4]: > 90%
- DC50 [4]: < 100 nM

SMILES: Cc1ncsc1-c1ccc(CNC(=O)[C@@H]2C[C@@H](O)CN2C(=O)[C@@H](NC(=O)C2CCC(c3cnc(N4C5CCC4CN(c4cc(-c6ccccc6O)nnc4N)C5)nc3)CC2C)C(C)(C)C)cc1 (some centres unmarked) [I-444]
- DC50 [1]: < 100 nM
- DC50 [2]: < 100 nM
- DC50 [4]: 501 to 1000 nM

SMILES: Cc1ncsc1-c1ccc(CNC(=O)[C@@H]2C[C@@H](O)CN2C(=O)[C@@H](NC(=O)C2CC(N3CCC(n4cc(-c5cc(-c6ccccc6O)nnc5N)cn4)CC3)C2)C(C)(C)C)cc1 (some centres unmarked) [I-484]
- Dmax [1]: > 90%
- DC50 [1]: < 100 nM
- Dmax [2]: 70 to 90%
- DC50 [2]: 100 to 500 nM
- Dmax [4]: 70 to 90%
- DC50 [4]: 100 to 500 nM

SMILES: Cc1ncsc1-c1ccc(CNC(=O)[C@@H]2C[C@@H](O)CN2C(=O)[C@@H](NC(=O)[C@H]2CC[C@H](CN(C)Cc3cnc(N4C5CCC4CN(c4cc(-c6ccccc6O)nnc4N)C5)nc3)CC2)C(C)(C)C)cc1 [I-486]
- Dmax [1]: > 90%
- DC50 [1]: < 100 nM
- Dmax [2]: 50 to 70%
- DC50 [2]: 100 to 500 nM
- Dmax [4]: > 90%
- DC50 [4]: 100 to 500 nM

SMILES: Cc1ncsc1-c1ccc(CNC(=O)[C@@H]2C[C@@H](O)CN2C(=O)[C@@H](NC(=O)C2CCC(c3cnc(N4C5CCC4CN(c4cc(-c6ccccc6O)nnc4N)C5)nc3)CC2)C(C)(C)C)cc1 (some centres unmarked) [I-503]
- Dmax [1]: > 90%
- DC50 [1]: < 100 nM
- Dmax [2]: > 90%
- DC50 [2]: < 100 nM
- Dmax [4]: > 90%
- DC50 [4]: < 100 nM

SMILES: Cc1ncsc1-c1ccc(CNC(=O)[C@@H]2C[C@@H](O)CN2C(=O)[C@@H](NC(=O)CN2C3CCC2CC(c2cnc(N4C5CCC4CN(c4cc(-c6ccccc6O)nnc4N)C5)nc2)C3)C(C)(C)C)cc1 (some centres unmarked) [I-509]
- Dmax [1]: 70 to 90%
- DC50 [1]: < 100 nM
- Dmax [2]: 70 to 90%
- DC50 [2]: > 1000 nM
- Dmax [4]: > 90%
- DC50 [4]: 100 to 500 nM

SMILES: Cc1ncsc1-c1ccc(CNC(=O)[C@@H]2C[C@@H](O)CN2C(=O)[C@@H](NC(=O)c2ccc(N3CC(n4cc(-c5cc(-c6ccccc6O)nnc5N)cn4)C3)cc2)C(C)(C)C)cc1 [I-514]
- Dmax [1]: > 90%
- DC50 [1]: < 100 nM
- Dmax [2]: > 90%
- DC50 [2]: < 100 nM
- Dmax [4]: > 90%
- DC50 [4]: 100 to 500 nM

SMILES: Cc1ncsc1-c1ccc(CNC(=O)[C@@H]2C[C@@H](O)CN2C(=O)[C@@H](NC(=O)CN2CCC(c3cnc(N4C5CCC4CN(c4cc(-c6ccccc6O)nnc4N)C5)nc3)CC2)C(C)(C)C)c(C(F)(F)F)c1 [I-522]
- Dmax [1]: > 90%
- DC50 [1]: < 100 nM
- Dmax [2]: 70 to 90%
- DC50 [2]: > 1000 nM
- Dmax [4]: 70 to 90%
- DC50 [4]: 100 to 500 nM
